{"source": "paper PMC7827085", "about": "(Pharmaceutics, 2021)", "key": {"ABCC1/MRP1 [1]": {"molecular_target": "T1, ABCC1/MRP1 (Homo sapiens, UniProt P33527)", "T1 sequence (P33527 whole entry)": "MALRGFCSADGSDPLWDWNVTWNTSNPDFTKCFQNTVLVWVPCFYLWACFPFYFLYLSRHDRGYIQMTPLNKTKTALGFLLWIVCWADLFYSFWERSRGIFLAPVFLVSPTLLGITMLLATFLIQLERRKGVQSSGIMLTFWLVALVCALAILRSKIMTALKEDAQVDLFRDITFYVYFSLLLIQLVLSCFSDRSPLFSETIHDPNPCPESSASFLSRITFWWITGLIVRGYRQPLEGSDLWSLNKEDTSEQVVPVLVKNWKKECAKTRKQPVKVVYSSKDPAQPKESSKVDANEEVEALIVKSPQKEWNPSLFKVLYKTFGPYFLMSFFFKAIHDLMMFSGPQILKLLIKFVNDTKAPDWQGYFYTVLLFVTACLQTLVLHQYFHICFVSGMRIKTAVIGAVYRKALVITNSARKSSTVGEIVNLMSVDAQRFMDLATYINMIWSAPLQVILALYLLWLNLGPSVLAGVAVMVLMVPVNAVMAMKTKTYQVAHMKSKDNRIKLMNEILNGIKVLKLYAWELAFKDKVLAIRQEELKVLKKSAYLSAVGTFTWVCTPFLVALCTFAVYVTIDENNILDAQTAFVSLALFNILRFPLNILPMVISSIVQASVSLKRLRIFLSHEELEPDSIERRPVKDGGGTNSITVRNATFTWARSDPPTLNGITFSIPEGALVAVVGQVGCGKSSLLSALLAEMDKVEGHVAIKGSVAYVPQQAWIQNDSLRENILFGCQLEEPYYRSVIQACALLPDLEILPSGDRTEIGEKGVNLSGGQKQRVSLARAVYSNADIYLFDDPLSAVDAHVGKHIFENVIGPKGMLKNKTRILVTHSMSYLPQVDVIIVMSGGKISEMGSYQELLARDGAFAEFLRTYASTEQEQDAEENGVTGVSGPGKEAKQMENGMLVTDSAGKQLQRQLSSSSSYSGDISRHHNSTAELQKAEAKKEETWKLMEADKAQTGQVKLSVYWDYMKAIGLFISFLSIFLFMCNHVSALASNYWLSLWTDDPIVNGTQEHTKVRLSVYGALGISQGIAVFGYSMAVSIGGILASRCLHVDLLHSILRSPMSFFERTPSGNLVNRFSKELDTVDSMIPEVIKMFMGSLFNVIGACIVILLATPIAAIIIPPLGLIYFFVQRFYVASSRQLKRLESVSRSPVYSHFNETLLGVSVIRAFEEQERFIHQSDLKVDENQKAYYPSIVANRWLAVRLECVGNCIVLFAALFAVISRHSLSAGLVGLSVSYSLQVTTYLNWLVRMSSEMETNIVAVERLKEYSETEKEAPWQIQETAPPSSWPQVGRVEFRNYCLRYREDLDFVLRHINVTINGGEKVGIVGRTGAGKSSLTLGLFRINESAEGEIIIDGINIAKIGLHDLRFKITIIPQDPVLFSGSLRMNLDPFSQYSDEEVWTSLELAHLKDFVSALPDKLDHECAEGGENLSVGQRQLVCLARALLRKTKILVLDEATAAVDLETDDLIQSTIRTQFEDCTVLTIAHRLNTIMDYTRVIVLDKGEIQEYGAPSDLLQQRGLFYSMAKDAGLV"}, "[2]": {"conditions": "in patients; lopinavir may reach, ritonavir may peak; ref FDA label 021226s018lbl / EMA Kaletra EPAR scientific discussion; cited from earlier work"}, "ABCB1/MDR1/Pgp [3]": {"molecular_target": "T2, ABCB1/MDR1/Pgp (Homo sapiens, UniProt P08183)", "T2 sequence (P08183 whole entry)": "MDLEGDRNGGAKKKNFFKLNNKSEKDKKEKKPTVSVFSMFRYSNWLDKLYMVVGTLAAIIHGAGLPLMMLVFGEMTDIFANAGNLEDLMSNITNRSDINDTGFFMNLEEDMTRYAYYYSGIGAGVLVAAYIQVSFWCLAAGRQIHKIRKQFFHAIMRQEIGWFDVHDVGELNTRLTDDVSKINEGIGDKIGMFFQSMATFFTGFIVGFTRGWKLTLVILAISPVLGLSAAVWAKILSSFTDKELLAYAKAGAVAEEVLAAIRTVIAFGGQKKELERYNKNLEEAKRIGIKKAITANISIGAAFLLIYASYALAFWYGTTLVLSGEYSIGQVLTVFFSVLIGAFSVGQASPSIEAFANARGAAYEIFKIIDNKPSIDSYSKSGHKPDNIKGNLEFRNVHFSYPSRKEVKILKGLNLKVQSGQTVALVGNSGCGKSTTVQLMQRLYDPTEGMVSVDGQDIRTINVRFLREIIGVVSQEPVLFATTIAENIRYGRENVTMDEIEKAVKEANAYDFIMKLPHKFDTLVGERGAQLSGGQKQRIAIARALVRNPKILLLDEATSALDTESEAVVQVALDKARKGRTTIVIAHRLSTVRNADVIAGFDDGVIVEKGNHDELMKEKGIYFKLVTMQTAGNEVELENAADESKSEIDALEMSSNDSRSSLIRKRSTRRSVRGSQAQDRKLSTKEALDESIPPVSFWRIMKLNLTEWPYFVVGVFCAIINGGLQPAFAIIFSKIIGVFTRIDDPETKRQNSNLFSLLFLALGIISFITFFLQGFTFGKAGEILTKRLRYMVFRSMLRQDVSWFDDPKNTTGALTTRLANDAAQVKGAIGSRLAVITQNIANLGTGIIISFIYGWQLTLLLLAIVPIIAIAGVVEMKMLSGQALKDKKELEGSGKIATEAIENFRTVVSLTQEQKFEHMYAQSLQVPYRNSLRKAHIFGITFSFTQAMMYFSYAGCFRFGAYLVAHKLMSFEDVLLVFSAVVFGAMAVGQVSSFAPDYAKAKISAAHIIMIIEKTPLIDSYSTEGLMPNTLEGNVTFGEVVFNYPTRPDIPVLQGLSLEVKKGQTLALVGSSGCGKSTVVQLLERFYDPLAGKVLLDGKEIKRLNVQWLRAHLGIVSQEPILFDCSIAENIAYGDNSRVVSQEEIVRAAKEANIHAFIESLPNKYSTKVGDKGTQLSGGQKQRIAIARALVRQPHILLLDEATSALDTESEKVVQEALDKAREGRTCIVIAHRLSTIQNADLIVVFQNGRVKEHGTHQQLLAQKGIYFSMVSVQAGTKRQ", "assay": "in vitro", "conditions": "human", "description": "(§1) For the ABC transporter assays, we used both cell-based and membrane-based functional assays. […] The respective transport activities were assayed by measuring the cellular fluorescence of the respective transported substrates Phengreen (ABCG2) and Calcein (ABCB1 and ABCC1).\n(§2) The cells were kept on ice until the flow cytometry measurements. All experiments were performed in triplicate and in at least three biological parallels.\n(§3) The cells were kept on ice until the flow cytometry measurements. All experiments were performed in triplicate and in at least three biological parallels. […] The PhenGreen (PG) or Calcein signal was detected in the BL1 channel (emission filter: 530/30 nm). Analysis of the data was carried out by the Attune Nxt Cytometer Software v3.1.2 (Thermo Fischer Scientific, Waltham, MA, USA). The inhibition of transporter activity was calculated by comparing the fluorescence in the presence of the test compound to that in the presence of a specific inhibitor providing maximum inhibition. […] Half-maximum inhibition (IC50) values were calculated by using the Origin2019 software (9.6.5.169, OriginLab Corporation, Northampton, MA, USA). […] In these experiments, we measured Hoechst dye extrusion in HeLa cells stably expressing eGFP and the ABCG2 variants driven by the same promoter—the transgenic cells generated by the Sleeping Beauty transposon system. […] For details, see Zámbó et al.). […] The maximum inhibition was defined for each variant as the fluorescence difference of the samples incubated with and without Ko143, respectively. […] Data analysis was performed using the Attune Nxt Cytometer Software v3.1.2. Two samples per condition and three biological replicates were examined in each experiment.\nABCB1 is a high-affinity active efflux transporter of the viability dye Calcein-AM (CaAM). […] Here, we applied this widely used cellular assay (see https://www.solvobiotech.com/services/categories/dye-efflux-assays) to characterize drug interactions of the applied compounds in intact PLB-985 cells, expressing high levels of the ABCB1 protein."}, "ABCG2/BCRP [4]": {"molecular_target": "T3, ABCG2/BCRP (Homo sapiens, UniProt Q9UNQ0)", "T3 sequence (Q9UNQ0 1-655)": "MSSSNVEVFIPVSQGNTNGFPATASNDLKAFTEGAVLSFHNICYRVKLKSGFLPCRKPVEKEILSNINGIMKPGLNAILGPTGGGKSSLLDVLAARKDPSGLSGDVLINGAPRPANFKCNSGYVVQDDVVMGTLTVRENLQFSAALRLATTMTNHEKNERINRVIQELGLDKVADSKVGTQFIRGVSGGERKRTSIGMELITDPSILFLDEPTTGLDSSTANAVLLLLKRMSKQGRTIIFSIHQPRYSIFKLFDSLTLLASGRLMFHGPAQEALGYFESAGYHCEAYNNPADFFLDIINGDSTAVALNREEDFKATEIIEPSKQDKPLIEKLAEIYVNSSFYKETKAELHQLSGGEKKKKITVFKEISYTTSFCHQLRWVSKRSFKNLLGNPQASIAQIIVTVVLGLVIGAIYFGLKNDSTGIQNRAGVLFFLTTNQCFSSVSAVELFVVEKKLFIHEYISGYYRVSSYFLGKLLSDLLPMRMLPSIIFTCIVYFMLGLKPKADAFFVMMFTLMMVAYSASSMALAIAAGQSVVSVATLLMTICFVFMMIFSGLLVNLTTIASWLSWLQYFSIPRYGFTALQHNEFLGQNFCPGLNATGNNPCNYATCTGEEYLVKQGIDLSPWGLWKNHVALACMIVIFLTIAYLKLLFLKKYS", "assay": "in vitro", "conditions": "human", "description": "These were employed at 37 °C for 10 min (ABCG2), 1 min (ABCB1), or 3 min (ABCC1), with or without 4 mM Mg-ATP, in a 50 μL final volume. The known reference inhibitors of the transporters (1 µM Ko143 for ABCG2, 1 µM Valspodar for ABCB1, and 200 µM Benzbromarone for ABCC1) served as controls. Each test compound was dissolved in DMSO and a 1 µL volume was added to the samples. After incubation, the samples were filtered and washed, and the substrates in the vesicles were dissolved in 10% SDS and transferred onto another plate. After the addition of a stabilizer, the fluorescence was measured in plate readers (Victor X3 and Enspire Perkin-Elmer, Waltham, MA, USA), while the activity of the radiolabeled substrate was measured by liquid scintillation counting (Perkin Elmer MicroBeta2 liquid scintillation counter, Perkin Elmer, Waltham, MA, USA). ABC transporter-related vesicular transport was calculated by subtracting uptake measured in the presence of Mg-AMP from the values measured in the presence of Mg-ATP.\nThe effects of the test compounds on ABCG2 activity were also measured in a vesicular transport assay by using inverted membrane vesicles prepared from HEK-293 cells expressing high levels of the ABCG2 transporter."}, "ABCB1/MDR1/Pgp [5]": {"molecular_target": "T2, ABCB1/MDR1/Pgp", "assay": "in vitro", "conditions": "Estimated Transporter Inhibition IC50, ABCB1 vesicular assay, ATP-dependent NMQ uptake, HEK-293/ABCB1 inverted membrane vesicles, '-' = no inhibition"}, "ABCG2/BCRP [6]": {"molecular_target": "T3, ABCG2/BCRP", "assay": "in vitro", "conditions": "human", "description": "as §1, §3\nHere, we used both PhenGreen-SK diacetate and Hst dye for these measurements. The PhenGreen (PG) assay is a recently patented method applied for ensuring an efficient ABCG2 transport measurement, as the non-fluorescent PhenGreen diacetate (PG-DA) is actively extruded by ABCG2 and the cellular fluorescence is correlated with ABCG2 transport activity. Therefore, we applied this assay to characterize the test drug interactions in intact PLB-985 cells expressing high levels of the ABCG2 protein. […] ABCG2 inhibition by the test compounds was estimated by their relative (%) inhibition compared to full inhibition by Ko143.", "remark": "listed apart in the source"}, "ABCC1/MRP1 [7]": {"molecular_target": "T1, ABCC1/MRP1", "assay": "in vitro", "conditions": "HL60/ABCC1 cells", "description": "as §1, §2, §3\nTherefore, we applied this assay to characterize the test drug interactions in intact HL60 cells expressing high levels of the ABCC1 protein."}}, "note": "Where two headings read alike, the source gives them in different places.", "data": [{"compound": "CC(C)c1nc(CN(C)C(=O)N[C@H](C(=O)N[C@@H](Cc2ccccc2)C[C@H](O)[C@H](Cc2ccccc2)NC(=O)OCc2cncs2)C(C)C)cs1", "note": "[ritonavir]", "values": [{"measurement": "Effect on ABCC1 vesicular ETGB transport (in words)", "setting": "ABCC1/MRP1 [1]; Sf9/ABCC1 membrane vesicles", "value": "practically no effect"}, {"measurement": "Plasma concentration in patients", "setting": "[2]", "value": "about 1 μM"}]}, {"compound": "CCN(CC)CCCC(C)Nc1ccnc2cc(Cl)ccc12", "note": "(centres unmarked) [chloroquine]", "values": [{"measurement": "Effect on ABCC1 vesicular ETGB transport (in words)", "setting": "ABCC1/MRP1 [1]", "value": "practically no effect"}, {"measurement": "IC50 at 40 min", "setting": "ABCB1/MDR1/Pgp [3]", "value": "> 50", "unit": "µM"}, {"measurement": "IC50 at 10 min", "setting": "ABCG2/BCRP [4]", "value": "> 50", "unit": "µM"}, {"measurement": "IC50", "setting": "ABCB1/MDR1/Pgp [5]", "value": "> 50", "unit": "µM"}, {"measurement": "IC50 at 40 min", "setting": "ABCG2/BCRP [6]", "value": "> 50", "unit": "µM"}, {"measurement": "Effect on ABCC1-dependent CaAM extrusion (in words)", "setting": "ABCC1/MRP1 [7]", "value": "practically no effect"}]}]}
